# Assay results from US20060009524A1, “Methods for producing D-beta-hydroxyamino acids” (priority 2004, published 2006).
# Test system: L-phenylserine aldolase
# Assay: Substrate specificity of purified L-phenylserine aldolase under the standard assay conditions
# Settings: compound as substrate
row,Compound,enzymatic activity to the compound (in words)
1,C[C@H](O)[C@H](N)C(=O)O [L-allo-threonine],low enzymatic activity
2,N[C@@H](CO)C(=O)O [L-serine],almost no activity
3,C[C@@H](O)[C@H](N)C(=O)O [L-threonine],low enzymatic activity

# Same assay, conditions: compound as substrate; […]
row,Compound,activity to the compound
1,N[C@@H](C(=O)O)[C@H](O)c1ccccc1 [D-erythro-phenyl serine],undetectable
2,N[C@@H](C(=O)O)[C@@H](O)c1ccccc1 [D-threo-phenyl serine],undetectable

# Same assay, conditions: compound as substrate; activity to DL-threo-β-phenyl serine taken as 100; purified enzyme, standard assay conditions
row,Compound,Relative activity
1,N[C@@H](C(=O)O)[C@H](O)c1ccccc1 (racemic) [DL-erythro-β-phenyl serine],130
2,N[C@@H](C(=O)O)[C@@H](O)c1ccccc1 (racemic) [DL-threo-β-phenyl serine],100
3,CCC(O)C(N)C(=O)O (racemic) [DL-β-hydroxynorvaline],0
4,NCC(O)c1ccccc1 (racemic) [DL-β-hydroxyphenylethylamine],0
5,C[C@@H](O)[C@@H](N)C(=O)O [D-allo-threonine],0
6,N[C@H](CO)C(=O)O [D-serine],0
7,C[C@H](O)[C@@H](N)C(=O)O [D-threonine],0
8,C[C@H](O)[C@H](N)C(=O)O [L-allo-threonine],8
9,O=C(O)[C@@H](O)Cc1ccccc1 [L-phenyllactic acid],0
10,N[C@@H](CO)C(=O)O [L-serine],0
11,C[C@@H](O)[C@H](N)C(=O)O [L-threonine],2.1
12,DL-β-thienyl serine,170

# Test system: L-phenylserine aldolase
# Assay: not given
# Assay type: biochemical, Pseudomonas putida biovar A24-1 strain
# Settings: compound as substrate; activity to DL-threo-phenyl serine taken as 100%
# Method: E. coli JM109 strain was transformed with the plasmid pKK-PSA1 obtained in Example 4. The resulting transformant was inoculated to liquid LB medium (Bacto-tryptone 10 g/l, Bacto-yeast extract 5 g/l, sodium chloride 10 g/l; pH 7.2) containing ampicillin (50 mg/l), and cultured at 30° C. overnight. Then, an aliquot of the culture was inoculated to 2×YT medium (Bacto-tryptone 20 g/l, Bacto-yeast extract 10 g/l, sodium chloride 10 g/l; pH 7.2) containing ampicillin (50 mg/l). The bacterial cells were cultured at 30° C., and then the induction was achieved by treating the cells with 0.1 mM IPTG for 4 hours. The bacterial cells were harvested by centrifugation. The cells were suspended in 100 mM TES-NaOH buffer (pH 7.2) containing 0.02% 2-mercaptoethanol, 2 mM EDTA, and 20 μM pyridoxal-5′-phosphate. The cell suspension was sonicated in a closed sonicator UCD-200™ (Cosmo Bio) for 3 minutes to lyse the bacterial cells. The bacterial cell lysate was centrifuged and the resulting supernatant was used as cell-free extract. The activity of L-phenylserine aldolase was assayed using the cell-free extract. The specific activity was confirmed to be 20.0 U/mg.
# When the activity to DL-threo-phenyl serine was taken as 100%, the relative activity was estimated to be 31.3%.
row,Compound,Relative activity
1,N[C@@H](C(=O)O)[C@H](O)C1CCCCC1 (racemic),31.3%

# Same assay, conditions: compound as substrate; cell-free extract of Example 5
row,Compound,enzymatic activity to the substrate
1,N[C@@H](C(=O)O)[C@H](O)C1CCCCC1 (racemic),6.26 U/mg

# Test system: L-phenylserine aldolase
# Assay: Effect of cations on the activity of L-phenylserine aldolase
# Assay type: biochemical, Pseudomonas putida biovar A24-1 strain
# Settings: not given
row,Compound,Relative activity
1,O=S(=O)([O-])[O-].[Cu+2] [Copper sulfate],89%
2,O=S(=O)([O-])[O-].[Fe+2] [Ferric (II) sulfate],91%
3,[Cl-].[Cl-].[Mg+2] [Magnesium chloride],98%

# Same assay, conditions: compound 0.1 mM, preincubated with enzyme at 30° C. for 10 minutes; […]
row,Compound,Relative activity
1,[Cl][Co][Cl] [Cobalt chloride],98%
2,[Cl-].[Cl-].[Zn+2] [Zinc chloride],92%

# Same assay, conditions: compound 0.1 mM, preincubated with enzyme at 30° C. for 10 minutes; activity in the absence of cation taken as 100
row,Compound,Relative activity
1,[Ba+2].[Cl-].[Cl-] [Barium chloride],90%
2,Manganese chloride,92%

# Same assay, conditions: compound 50 mM, preincubated with enzyme at 30° C. for 10 minutes; […]
row,Compound,Relative activity
1,Cl.N [Ammonium chloride],92%
2,[Cl-].[K+] [Potassium chloride],94%
3,[Cl-].[Na+] [Sodium chloride],88%

# Same assay, conditions: monovalent or divalent cations
row,Compound,activation of the enzyme by cation (in words)
1,N [ammonium ion],not activated
2,[Mn+2] [manganese ion],not activated
3,[K+] [potassium ion],not activated
